The values below come from PMC9246774, “Construction and Functional Evaluation of a Three-Dimensional Blood–Brain Barrier Model Equipped With Human Induced Pluripotent Stem Cell-Derived Brain Microvascular Endothelial Cells” (Pharmaceutical Research, 2022).

Data set [1] concerns hiPS-BMECs. Put plainly: Permeability experiments in the 3D-BBB system (hiPS-BMECs on OrganoPlate 3-lane). How it is done: (§1) The 3D-BBB system using the OrganoPlate® 3-lane plate was constructed with some modifications to the protocol published by MIMETAS. During the differentiation of hiPS-BMECs, to separate the capillary side from the brain side, extracellular matrix hydrogel composed of 4 mg/mL collagen I (Cultrex 3D Matrix Rat Collagen-I, 5 mg/mL, AMSbio), 100 mM HEPES, and 3.7 mg/mL NaHCO3 was dispensed into the middle lane. The plate was incubated at 37°C for 15 min to polymerize collagen I. After incubation, HBSS (+) without phenol red (Fujifilm Wako) was added to the gel channel to prevent the gel from drying out. […] The suspension was injected into capillary lanes precoated with fibronectin/collagen IV solution (PharmCo-Cell). After seeding the cells, the plate was incubated for 4 h at a tilt to allow the cells to adhere to the gel. After incubation, the medium was added to the capillary channels and the plate was placed on an OrganoFlow® (MIMETAS), switching between a + 7° and − 7° inclination every 8 min to create a bidirectional flow mimicking blood flow. On day 9, the medium in the capillary channels was replaced with fresh ESFM + 1% hPDS containing 10 μM MMP inhibitor.
(§2) Permeability experiments were performed on day 10, at 48 h after seeding hiPS-BMECs on the plate. […] The assay buffer containing test drugs was added to the donor side to initiate the assay, and the plate was then incubated on the OrganoFlow® at 37°C for the designated times. Transporter inhibitors were added to both the donor and receiver sides at the start of preincubation. In all permeability experiments, the amount of lucifer yellow transported through the paracellular pathway to the receiver side was measured with a SpectraMax i3x (Molecular Devices, San Jose, CA) as a measure of cell-to-cell tightness. The protocol for the permeability experiments, including the composition of the assay buffer, is described in detail in the Supplementary Material. The apparent permeability coefficient (Papp) was calculated as follows: Papp=(dQ/dt)/D0×S
(§3) where dQ/dt, D0, and S are the transport velocity of the test drugs, the initial concentration of test drugs on the donor side, and the surface area of the extracellular matrix hydrogel in the middle lane, respectively. The efflux ratio value was calculated from the Papp value in the capillary-to-brain (A-to-B) and brain-to-capillary (B-to-A) directions as follows: Effluxratio=Papp,B-to-A/Papp,A-to-B.
(§4) The test drugs were quantified using a high-performance liquid chromatography (HPLC)-tandem mass spectrometry system composed of a Nexera-XR (Shimazu, Kyoto, Japan) HPLC system connected to a Qtrap4500 (AB Sciex, Foster City, CA, USA) mass spectrometer with an electrospray ionization interface.
(§5) On day 10, remove the medium in the capillary lane of the 3D-BBB system. After removal, 100 µL of assay buffer (50 µL in each Well ➀, ②, ⑤ and ⑥) was added to the capillary and brain lane for washing. After 30 min for washing, 100 µL of a fresh assay buffer containing the drug was added to the donor side (A-to-B direction; 50 µL in each Well ➀ and ②, B-to-A direction; 50 µL in each Well ⑤ and ⑥). In addition, 100 µL of a fresh assay buffer was added to the receiver side (A-to-B direction; 50 µL in each Well ⑤ and ⑥, B-to-A direction; 50 µL in each Well ➀ and ②). Inhibitors were added on both sides of the donor and receiver to avoid a gradient in concentration. At the designed sampling time, 50 µL of assay buffer was collected from the receiver side (A-to-B direction; 25 µL in each Well ⑤ and ⑥, B-to-A direction; 25 µL in each Well ➀ and ②), and 50 µL of a fresh assay buffer was added.

For data set [2], the system named is hiPS-BMECs. The following applies: cited from earlier work.
Data set [3] can be described thus: Permeability experiments in the 3D-BBB system (hiPS-BMECs on OrganoPlate 3-lane). The following applies: human. How it is done:
as §1, §2, §3, §4, §5

The test system of another data set is BCRP. Described as above. The following applies: human, pH 7.4, with Ko143 1 µM (BCRP inhibitor), Efflux ratio (B-to-A/A-to-B), + 1 μM Ko143 (BCRP inhibitor). How it is done: as §1, §2, §3, §4, §5
The nature of data set [4]: Permeability in the hydrogel without hiPS-BMECs (OrganoPlate 3-lane). The data set is classed as in vitro ADME. The following applies: pH 7.4, upper limit of the system, data not shown.
For the next data set, the system named is MCTs. Put plainly: Inhibition of H+-gradient-promoted [14C] L-lactate transport in the 3D-BBB system. The data set is classed as cell-based, human. The following applies: 20 nM AZD3965; one lane pH 6.0, opposite lane pH 7.4.
The subject of data set [5] is monkey in vitro BBB model. On the set-up: method as in PMID 34575559. As to conditions: cited from earlier work.
Another data set relates to human BBB. On the set-up: method as in PMID 24947467. As to conditions: prediction for human BBB; cited from earlier work.
Where [6] appears, read: pH 7.4, Efflux ratio (B-to-A/A-to-B), Control.

Method for MCTs: Permeability experiments were performed on day 10, at 48 h after seeding hiPS-BMECs on the plate. After removal of the medium in the capillary channels, the assay buffer (pH 7.4) was added to both sides of the capillary and brain channels and preincubated on the OrganoFlow® for 30 min. The assay buffer containing test drugs was added to the donor side to initiate the assay, and the plate was then incubated on the OrganoFlow® at 37°C for the designated times. Transporter inhibitors were added to both the donor and receiver sides at the start of preincubation. In all permeability experiments, the amount of lucifer yellow transported through the paracellular pathway to the receiver side was measured with a SpectraMax i3x (Molecular Devices, San Jose, CA) as a measure of cell-to-cell tightness. […] The apparent permeability coefficient (Papp) was calculated as follows: Papp=(dQ/dt)/D0×S
On day 10, remove the medium in the capillary lane of the 3D-BBB system. After removal, 100 µL of assay buffer (50 µL in each Well ➀, ②, ⑤ and ⑥) was added to the capillary and brain lane for washing. […] At 3.5 hr after the start of permeability experiment, the transport amount of lucifer yellow on the receiver side was measured to check for leakage, and all donor and receiver were collected at 4 hr.

On to `NC(N)=NCCC[C@H](N)C(=O)O` [[^3H] L-Arginine, Arginine, L-[2,3,4-^3H]], for which the “Efflux ratio (B-to-A/A-to-B)” value in the data set on hiPS-BMECs [1] (Control) amounted to 0.410. Moreover, the “Papp B-to-A” value in the data set with hiPS-BMECs [1] (Control, brain-to-capillary, pH 7.4) is on record as 5.77 × 10^–6 cm/s. Further, the “Papp A-to-B” value with hiPS-BMECs [1] (Control, capillary-to-brain, pH 7.4) was 14.1 × 10^–6 cm/s.
Turning to lucifer yellow, the “Papp in 2D culture of hiPS-BMECs” value with hiPS-BMECs [2] was 0.0845 × 10^–6 cm/s. Further, the “Block of leakage by hiPS-BMECs” value in the data set with hiPS-BMECs [1] is given as “more than 99%”.
As to `[14CH3][14CH](O)[14C](=O)[O-].[Na+]` [[^14C] L-Lactate, Lactic acid sodium salt, L-[^14C(U)]], the “Efflux ratio (B-to-A/A-to-B)” value in the data set with hiPS-BMECs [1] (A: pH 6.0—B: pH 7.4) came to 0.257; with hiPS-BMECs [1] (A: pH 7.4—B: pH 6.0) it was 3.07; in the data set on hiPS-BMECs [1] (A: pH 7.4—B: pH 7.4) it was 0.944. Also, the “Papp A-to-B” value in the data set with hiPS-BMECs [1] (A: pH 6.0—B: pH 7.4) is on record as 34.1 × 10^–6 cm/s; in the data set with hiPS-BMECs [1] (A: pH 6.0—B: pH 7.4, + 20 nM AZD3965), 12.0 × 10^–6 cm/s; in the data set on hiPS-BMECs [1] (A: pH 7.4—B: pH 6.0), 7.68 × 10^–6 cm/s; with hiPS-BMECs [1] (A: pH 7.4—B: pH 7.4), 19.1 × 10^–6 cm/s. The “Papp B-to-A” value was 8.74 × 10^–6 cm/s with hiPS-BMECs [1] (A: pH 6.0—B: pH 7.4); 23.6 × 10^–6 cm/s in the data set with hiPS-BMECs [1] (A: pH 7.4—B: pH 6.0); 9.60 × 10^–6 cm/s with hiPS-BMECs [1] (A: pH 7.4—B: pH 6.0, + 20 nM AZD3965); 18.1 × 10^–6 cm/s with hiPS-BMECs [1] (A: pH 7.4—B: pH 7.4).
A word on the Papp A→B: it is how fast a substance crosses the layer from the apical side. Broadly, the Papp B→A is how fast a substance crosses the layer from the basolateral side. Broadly, the efflux ratio is a quotient of directional permeabilities that is used to spot active efflux. `Nc1nc(Cl)nc2c1ncn2[C@H]1C[C@H](O)[C@@H](CO)O1` [Cladribine]: the “Efflux ratio (B-to-A/A-to-B)” value with hiPS-BMECs [1] (Control) came out at 5.61. Further, in data set [3] (pH 7.4), the Papp A→B at 4 h was determined as 2.69 ×10⁻⁶ cm/s and the Papp B→A at 4 h turned out to be 15.1 ×10⁻⁶ cm/s. Also, the efflux ratio at 4 h in data set [3] (setting [6]) is 5.6. For the same compound, in the data set on BCRP, the efflux ratio at 4 h is 1.45.
In general, Papp refers to the rate of passage across a membrane or cell layer, normalised by area and donor concentration. Compound `Cc1cc(=O)n(-c2ccccc2)n1C` [Antipyrine] displayed a Papp at 4 h in data set [4] of 59.2 ×10⁻⁶ cm/s. In data set [3] (pH 7.4), this compound showed a Papp A→B at 4 h of 33.4 ×10⁻⁶ cm/s and a Papp B→A at 4 h of 35.1 ×10⁻⁶ cm/s. Besides, the efflux ratio at 4 h in data set [3] (setting [6]) turned out to be 1.05.
As to `Cc1[nH]nc(C(F)(F)F)c1Cc1sc2c(c1C(=O)N1C[C@](C)(O)CO1)c(=O)n(C)c(=O)n2C(C)C` [AZD3965], in the data set with MCTs, the “Reduction of [14C] L-lactate transport promoted by the H+-gradient” value is listed as “approximately 60%”.
As for `C=C[C@H]1C[N@@]2CC[C@H]1C[C@@H]2[C@@H](O)c1ccnc2ccc(OC)cc12` [Quinidine], in data set [5], the Efflux ratio result was “approximately 1.7”. Also, the Efflux ratio in the data set with human BBB was ~13.4. For the same compound, in data set [3] (pH 7.4), the apparent permeability from apical to basolateral (Papp A→B) at 4 h was 21.6 ×10⁻⁶ cm/s and the Papp B→A at 4 h was determined as 22.8 ×10⁻⁶ cm/s. In data set [3] (setting [6]), the efflux ratio at 4 h came out at 1.06.
Regarding `NCC1(CC(=O)O)CCCCC1` [Gabapentin], in data set [3] (pH 7.4), the Papp A→B at 4 h was determined as 16 ×10⁻⁶ cm/s, the Papp B→A at 4 h amounted to 6.4 ×10⁻⁶ cm/s and the efflux ratio at 4 h stood at 0.401.
